Measurements from patent US10689354B2, “Aminoazole derivative” (Teijin Pharma Limited, priority 2015, dated 2020).

Biological target: T1, androgen receptor (AR-LBD) (Rattus norvegicus, UniProt P15207)
T1 construct: 5 μL of 2×AR-LBD/Fluoromone AL Red Complex contained in the kit; purchased Invitrogen
T1 sequence (P15207 651-882 limits assumed): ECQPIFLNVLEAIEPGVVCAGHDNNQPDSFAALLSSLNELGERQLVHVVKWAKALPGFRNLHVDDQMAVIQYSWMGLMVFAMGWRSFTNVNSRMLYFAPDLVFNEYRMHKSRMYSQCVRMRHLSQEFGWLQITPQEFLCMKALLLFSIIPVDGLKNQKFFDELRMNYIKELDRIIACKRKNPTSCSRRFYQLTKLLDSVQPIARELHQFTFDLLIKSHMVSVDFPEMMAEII
Assay: Evaluation of androgen receptor affinity (PolarScreen Androgen Receptor Competitor Assay Kit, Red; fluorescence polarization)
Conditions: 22° C. for 5 hours, relative to binding rate of 1 μM DHT, read-out: AR affinity (pEC50) (converted)
Summary of the method: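 pEC50 values reflect tracer displacement from AR-LBD (Fluoromone AL Red complex) measured by fluorescence polarization after 5 h at 22° C, normalized to 1 μM DHT and fitted with a 4-parameter model.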

Row | Structure (SMILES) | EC50 [nM]
1 | Cc1sc(N(Cc2ccccc2)c2cccnn2)nc1C(=O)NS(C)(=O)=O [Example 238, 2-[benzyl(pyridazin-3-yl)amino]-5-methyl-N-methylsulfonyl-thiazole-4-carboxamide] | > 2000
2 | COC(=O)c1ccc(N(Cc2ccccc2)c2nc(C(=O)NS(C)(=O)=O)c(C)s2)nn1 [Example 239, methyl 6-[benzyl-[5-methyl-4-(methylsulfonylcarbamoyl)thiazol-2-yl]amino]pyridazine-3-carboxylate] | > 2000
3 | Cc1cccc(CN(c2ccc(C#N)cc2)c2nc(C(=O)NS(C)(=O)=O)c(Br)s2)c1 [Example 245, 5-bromo-2-[4-cyano-N-(m-tolylmethyl)anilino]-N-methylsulfonyl-thiazole-4-carboxamide] | 79.4
4 | Cc1ccc(CN(c2ccc(C#N)cc2)c2nc(C(=O)NS(C)(=O)=O)c(Br)s2)cc1 [Example 246, 5-bromo-2-[4-cyano-N-(p-tolylmethyl)anilino]-N-methylsulfonyl-thiazole-4-carboxamide] | 39.8
5 | COc1ccccc1CN(c1ccc(C#N)cc1)c1nc(C(=O)NS(C)(=O)=O)c(Br)s1 [Example 249, 5-bromo-2-[4-cyano-N-[(2-methoxyphenyl)methyl]anilino]-N-methylsulfonyl-thiazole-4-carboxamide] | 100
6 | COc1ccc(CN(c2ccc(C#N)cc2)c2nc(C(=O)NS(C)(=O)=O)c(Br)s2)cc1 [Example 250, 5-bromo-2-[4-cyano-N-[(4-methoxyphenyl)methyl]anilino]-N-methylsulfonyl-thiazole-4-carboxamide] | 63.1
7 | Cc1ccccc1CN(c1ccc(C#N)cc1)c1nc(C(=O)NS(C)(=O)=O)c(Cl)s1 [Example 259, 5-chloro-2-[4-cyano-N-(o-tolylmethyl)anilino]-N-methylsulfonyl-thiazole-4-carboxamide] | 79.4
8 | COc1cccc(CN(c2ccc(C#N)cc2)c2nc(C(=O)NS(C)(=O)=O)c(Cl)s2)c1 [Example 260, 5-chloro-2-[4-cyano-N-[(3-methoxyphenyl)methyl]anilino]-N-methylsulfonyl-thiazole-4-carboxamide] | 39.8
9 | Cc1sc(N(Cc2ccccc2)c2ccc(S(C)(=O)=O)cc2)nc1C(=O)NS(C)(=O)=O [Example 261, 2-(N-benzyl-4-methylsulfonyl-anilino)-5-methyl-N-methylsulfonyl-thiazole-4-carboxamide] | 1260
10 | Cc1ccccc1CN(c1ccc(C#N)cc1)c1nc(C(=O)NS(C)(=O)=O)c(Br)s1 [Example 264, 5-bromo-2-[4-cyano-N-(o-tolylmethyl)anilino]-N-methylsulfonyl-thiazole-4-carboxamide] | 158
11 | Cc1cccc(CN(c2ccc(C#N)cc2)c2nc(C(=O)NS(C)(=O)=O)c(Cl)s2)c1 [Example 266, 5-chloro-2-[4-cyano-N-(m-tolylmethyl)anilino]-N-methylsulfonyl-thiazole-4-carboxamide] | 31.6
12 | Cc1ccc(CN(c2ccc(C#N)cc2)c2nc(C(=O)NS(C)(=O)=O)c(Cl)s2)cc1 [Example 267, 5-chloro-2-[4-cyano-N-(p-tolylmethyl)anilino]-N-methylsulfonyl-thiazole-4-carboxamide] | 25.1
13 | Cc1nc(CN(c2ccc(C#N)cc2)c2nc(C(=O)NS(C)(=O)=O)c(Cl)s2)cs1 [Example 278, 5-chloro-2-[4-cyano-N-[(2-methylthiazol-4-yl)methyl]anilino]-N-methylsulfonyl-thiazole-4-carboxamide] | 794
14 | Cc1sc(N(c2ccc(C#N)cc2F)[C@@H](CO)Cc2ccccc2)nc1C(=O)NS(C)(=O)=O [Example 287, 2-(N-[(1R)-1-benzyl-2-hydroxy-ethyl]-4-cyano-2-fluoro-anilino)-5-methyl-N-methylsulfonyl-thiazole-4-carboxamide] | > 2000
15 | Cc1sc(N(Cc2ccccc2)Cc2ccccc2)nc1C(=O)NS(C)(=O)=O [Example 288, 2-(dibenzylamino)-5-methyl-N-methylsulfonyl-thiazole-4-carboxamide] | > 2000
16 | Cc1sc(N(Cc2ccccc2)Cc2ccc(C#N)cc2)nc1C(=O)NS(C)(=O)=O [Example 289, 2-[benzyl-[(4-cyanophenyl)methyl]amino]-5-methyl-N-methylsulfonyl-thiazole-4-carboxamide] | > 2000
17 | Cc1sc(N(Cc2ccccc2)Cc2cccc(C#N)c2)nc1C(=O)NS(C)(=O)=O [Example 290, 2-[benzyl-[(3-cyanophenyl)methyl]amino]-5-methyl-N-methylsulfonyl-thiazole-4-carboxamide] | > 2000
18 | Cc1sc(N(Cc2ccccc2)Cc2ccccc2C#N)nc1C(=O)NS(C)(=O)=O [Example 291, 2-[benzyl-[(2-cyanophenyl)methyl]amino]-5-methyl-N-methylsulfonyl-thiazole-4-carboxamide] | > 2000

Row | Structure (SMILES) | EC50 [nM]
19 | Cc1sc(N(C)Cc2ccccc2)nc1C(=O)NS(C)(=O)=O [Example 292, 2-[benzyl(methyl)amino]-5-methyl-N-methylsulfonyl-thiazole-4-carboxamide] | > 2000
20 | Cc1sc(N(Cc2ccccc2)Cc2cccnc2)nc1C(=O)NS(C)(=O)=O [Example 293, 2-[benzyl(3-pyridylmethyl)amino]-5-methyl-N-methylsulfonyl-thiazole-4-carboxamide] | > 2000
21 | Cc1sc(N(Cc2ccccc2)Cc2ccccn2)nc1C(=O)NS(C)(=O)=O [Example 295, 2-[benzyl(2-pyridylmethyl)amino]-5-methyl-N-methylsulfonyl-thiazole-4-carboxamide] | > 2000
22 | Cc1sc(N(Cc2ccccc2)Cc2ccncc2)nc1C(=O)NS(C)(=O)=O [Example 296, 2-[benzyl(4-pyridylmethyl)amino]-5-methyl-N-methylsulfonyl-thiazole-4-carboxamide] | > 2000
23 | Cc1sc(N(CCCc2ccccc2)Cc2ccccc2)nc1C(=O)NS(C)(=O)=O [Example 297, 2-[benzyl(3-phenylpropyl)amino]-5-methyl-N-methylsulfonyl-thiazole-4-carboxamide] | 501
24 | Cc1sc(N(CCC2CCOCC2)Cc2ccccc2)nc1C(=O)NS(C)(=O)=O [Example 300, 2-[benzyl(2-tetrahydropyran-4-ylethyl)amino]-5-methyl-N-methylsulfonyl-thiazole-4-carboxamide] | 398
25 | Cc1sc(N(CCc2ccccc2C#N)Cc2ccccc2)nc1C(=O)NS(C)(=O)=O [Example 302, 2-[benzyl-[2-(2-cyanophenyl)ethyl]amino]-5-methyl-N-methylsulfonyl-thiazole-4-carboxamide] | 1260
26 | Cc1sc(N(Cc2ccccc2)CC2(c3ccccc3)CC2)nc1C(=O)NS(C)(=O)=O [Example 304, 2-[benzyl-[(1-phenylcyclopropyl)methyl]amino]-5-methyl-N-methylsulfonyl-thiazole-4-carboxamide] | > 2000
27 | COc1ccc(CCN(Cc2ccccc2)c2nc(C(=O)NS(C)(=O)=O)c(C)s2)cc1OC [Example 307, 2-[benzyl-[2-(3,4-dimethoxyphenyl)ethyl]amino]-5-methyl-N-methylsulfonyl-thiazole-4-carboxamide] | > 2000
28 | Cc1sc(N(CCn2cccc2)Cc2ccccc2)nc1C(=O)NS(C)(=O)=O [Example 309, 2-[benzyl(2-pyrrol-1-ylethyl)amino]-5-methyl-N-methylsulfonyl-thiazole-4-carboxamide] | > 2000
29 | Cc1ncsc1CCN(Cc1ccccc1)c1nc(C(=O)NS(C)(=O)=O)c(C)s1 [Example 311, 2-[benzyl-[2-(4-methylthiazol-5-yl)ethyl]amino]-5-methyl-N-methylsulfonyl-thiazole-4-carboxamide] | > 2000
30 | Cc1sc(N(CCc2ccc3ccccc3c2)Cc2ccccc2)nc1C(=O)NS(C)(=O)=O [Example 312, 2-[benzyl-[2-(2-naphthyl)ethyl]amino]-5-methyl-N-methylsulfonyl-thiazole-4-carboxamide] | 631
31 | Cc1sc(N(CCc2cccc3ccccc23)Cc2ccccc2)nc1C(=O)NS(C)(=O)=O [Example 314, 2-[benzyl-[2-(1-naphthyl)ethyl]amino]-5-methyl-N-methylsulfonyl-thiazole-4-carboxamide] | > 2000
32 | Cc1sc(N(CCc2c(Cl)cccc2Cl)Cc2ccccc2)nc1C(=O)NS(C)(=O)=O [Example 316, 2-[benzyl-[2-(2,6-dichlorophenyl)ethyl]amino]-5-methyl-N-methylsulfonyl-thiazole-4-carboxamide] | > 2000
33 | Cc1sc(N(CCc2ccc(S(C)(=O)=O)cc2)Cc2ccccc2)nc1C(=O)NS(C)(=O)=O [Example 317, 2-[benzyl-[2-(4-methylsulfonylphenyl)ethyl]amino]-5-methyl-N-methylsulfonyl-thiazole-4-carboxamide] | 501
34 | Cc1ccc(S(=O)(=O)n2cc(CCN(Cc3ccccc3)c3nc(C(=O)NS(C)(=O)=O)c(C)s3)c3ccccc32)cc1 [Example 318, 2-[benzyl-[2-[1-(p-tolylsulfonyl)indol-3-yl]ethyl]amino]-5-methyl-N-methylsulfonyl-thiazole-4-carboxamide] | > 2000
35 | Cc1sc(N(CCC2CCN(C(=O)OC(C)(C)C)CC2)Cc2ccccc2)nc1C(=O)NS(C)(=O)=O [Example 319, tert-butyl 4-[2-[benzyl-[5-methyl-4-(methylsulfonylcarbamoyl)thiazol-2-yl]amino]ethyl]piperidine-1-carboxylate] | > 2000
